Assay results from patent US7109170B2, “Region of factor IXa protease domain that interacts with factor VIIIa and methods therefor” (Saint Louis University, priority 1999, dated 2006).
Peptide text beside a SMILES is read from it.

Biological target: T1, factor IXa (Homo sapiens, UniProt P00740)
T1 construct: heavy chain of factor IXa comprised of residues 181–415; light chain of factor IXa comprised of residues 1–145
Assay: Factor IX peptide competition assay in the absence of factor VIIIa
Assay type: biochemical
Protocol: Each reaction mixture contained 20 nM of factor IXa, 100 nM of factor X, various concentrations of peptide, 25 μM of phospholipid, and 5 mM CaCl2 in TBS/BSA. The reaction mixtures were incubated for 2.5, 5, 10, 15, and 20 minutes at 37° C. and were stopped with the addition of 1.5 μL of 0.5 M EDTA and placed on ice. Forty μL of each reaction was 5 added to 100 μL of TBS/BSA in a 96 well microtiter plate and S-2222 was added to a final concentration of 100 μM.

inhibitory effect on factor IXa's ability to activate factor X: no inhibitory effect
SMILES: CC(C)C[C@H](N)C(=O)N[C@H](C(=O)N[C@@H](CC(=O)O)C(=O)N[C@@H](CCCNC(=N)N)C(=O)N[C@@H](C)C(=O)N[C@H](C(=O)O)[C@@H](C)O)C(C)C [Protein P-4351, LVDRAT] (H-LVDRAT-OH; N-terminus and C-terminus assumed)
